# Reference: patent US20080085244A1, “Methods for identifying and using amyloid-inhibitory compounds” (Wyeth, priority 1999, published 2008)
# Like-named read-outs stand apart in the source and are kept apart here.
# Experiments:
# [1] = Uterine weight (E2-induced hypertrophy) in ovariectomized guinea pigs; format: in vivo, guinea pig
# Method: Maintenance of animals and treatment. Ovariectomized (ovx) and intact female guinea pigs were purchased from Hilltop Laboratories (Scottsdale, Pa.); ovx animals were 8 weeks old at the time of surgery. 17β-estradiol (E2) was purchased from Sigma (St. Louis, Mo.). Throughout the study, the animals were fed ad libitum in a controlled lighting environment (12 h/12 h light/dark cycles). After the surgery, the ovx guinea pigs were put on a casein-based, soy-free diet (Purina, Richmond, Ind.) to exclude the presence of phytosteroids in the diet. The intact animals also began receiving soy-free food at approximately 8 weeks of age. […] E2 was administered per os by powdering the hormone into the soy-free chow. Prior to the beginning of the treatment, all animals were weighed. The average daily food intake for each animal using this particular diet was determined in a preliminary experiment.
# Tissue collection. At the end of the treatment, all animals were sacrificed by decapitation. Trunk blood was collected for determination of E2 levels in the serum by radioimmunoassay (Diagnostic Products Laboratory). Uteri were removed and weighed to establish E2-induced hypertrophy. The brains were immediately removed, and the cerebellum was dissected away from each brain. The rest of the brain was divided into hemispheres which were snap-frozen and stored at −80° C.
# Seven ovx guinea pigs (8 weeks old at the time of ovx) were used. After ovx, the animals were fed soy-free, casein-based diet to avoid the consumption of estrogenic phytosteroids. […] E2 was administered per os by powdering the hormone into the soy-free chow. […] After the treatment, all animals were sacrificed, and blood, uteri, and brains were collected for analysis. Uterine weights and serum E2 levels were determined to document the hormonal status. The levels of Aβ40, Aβ42, and sAPPα in brain tissue were determined using Aβ40- and Aβ42-specific ELISA assays and quantitative immunoblotting, respectively, as described in Methods.
# At the end of the E2 treatment, all animals were sacrificed by decapitation, and blood, uteri, and brains were isolated and subjected to analysis.
# brain Aβ (Aβ40, Aβ42) = assay: Brain Aβ40, Aβ42 and total Aβ levels by ELISA of DEA brain extracts of ovariectomized guinea pigs; format: in vivo, guinea pig
# Method: Maintenance of animals and treatment. Ovariectomized (ovx) and intact female guinea pigs were purchased from Hilltop Laboratories (Scottsdale, Pa.); ovx animals were 8 weeks old at the time of surgery. […] Throughout the study, the animals were fed ad libitum in a controlled lighting environment (12 h/12 h light/dark cycles). After the surgery, the ovx guinea pigs were put on a casein-based, soy-free diet (Purina, Richmond, Ind.) to exclude the presence of phytosteroids in the diet. The intact animals also began receiving soy-free food at approximately 8 weeks of age. […] Prior to the beginning of the treatment, all animals were weighed. The average daily food intake for each animal using this particular diet was determined in a preliminary experiment.
# Tissue collection. At the end of the treatment, all animals were sacrificed by decapitation. […] The brains were immediately removed, and the cerebellum was dissected away from each brain. The rest of the brain was divided into hemispheres which were snap-frozen and stored at −80° C.
# Preparation of Brain Extracts. Soluble Proteins from the Brains were Recovered using a modification of an established protocol (Savage et al., J. Neurosci., 1998, 18:1743-52). Briefly, the hemispheres were homogenized in 0.2% diethylamine (DEA)/50 mM NaCl at 1:10 w/v ratio, with 5-6 strokes of a Dounce homogenizer. The DEA homogenate was centrifuged for 90 min at 100,000 g. The DEA supernatants were neutralized to pH about 8.0 by addition of 1/10th vol. of 0.5M Tris-Cl pH 6.8, then aliquoted and snap-frozen. The pellets of the DEA extracts were solubilized in 2% SDS/PBS containing a cocktail of protease inhibitors (“Complete”, Boehringer Mannheim, Germany), sonicated and boiled. The protein concentrations of the DEA and SDS supernatants were determined using the BCA reagent assay kit (Pierce, Rockford, Ill.).
# Detection of sAPPα, flAPP, Aβ40 and Aβ42. The amino acid sequence of APP from guinea pigs is 97% identical to the human APP homologue and the Aβ region is 100% identical to human Aβ (Beck et al., Biochim. Biophys. Acta, 1997, 1351:17-21), thus enabling use of well characterized Aβ antibodies to study the effects of estrogen on APP metabolism.
# The levels of Aβ40 and Aβ42 were determined by Aβ40- and Aβ42-specific ELISA assays (Mehta et al, Neurosci. Lett., 1998, 241:13-16). For each animal, the levels of Aβ40, Aβ42, and total Aβ were standardized to brain tissue weight and expressed as ng (Aβ)/g (brain tissue, wet weight). In all experiments, animals were coded prior to tissue collection, and the treatment status of each animal was unknown to the investigators at the time of the assays.
# Seven ovx guinea pigs (8 weeks old at the time of ovx) were used. After ovx, the animals were fed soy-free, casein-based diet to avoid the consumption of estrogenic phytosteroids. […] After the treatment, all animals were sacrificed, and blood, uteri, and brains were collected for analysis. […] The levels of Aβ40, Aβ42, and sAPPα in brain tissue were determined using Aβ40- and Aβ42-specific ELISA assays and quantitative immunoblotting, respectively, as described in Methods.
# [2] = Serum E2 levels in ovariectomized APP transgenic rodents; format: in vivo, transgenic mice and rats (human APP); conditions: ovx APP transgenic rodents, E2 in chow 10 days, compared to untreated ovx
# From the text: (§1) Transgenic APP and APP/PS rodents. Transgenic animals relevant to Alzheimer's Disease have been reviewed (Seabrook and Rosahl, Neuropharmacology, 1999, 38:1-17; see, Detailed Description, supra). Both mice and rats have been made transgenic for APP, for PS1 and for both genes, and with wild-type and FAD mutant forms of the genes,. One group of these animals is ovariectomized. 17β-Estradiol (E2) is purchased from Sigma (St. Louis, Mo.). Animals are fed ad libitum in a controlled lighting environment, using a casine-based, soy-free diet, as described in Example 1. […] E2 is administered per os by powdering the hormone in the soy-free chow. All animals are weighed at the beginning prior to treatment. Average daily food intake is determined prior to treatment as well.
# (§2) Tissue collection. After treatment, all animals are sacrificed by decapitation. Trunk blood is collected for determination of E2 levels. Uteri are removed and weighed to establish the presence of atrophy due to estrogen deficiency or E2-induced hypertrophy. Brains are immediately removed and the cerebellum dissected away. The brain is divided into hemispheres which are snap-frozen and stored at −80° C.
# [3] = Uterine weight in ovariectomized APP transgenic rodents; format: in vivo, transgenic mice and rats (human APP); conditions: ovx APP transgenic rodents, E2 in chow 10 days, compared to untreated ovx
# From the text: as §1, §2
# brain Aβ = assay: Brain Aβ levels in ovariectomized APP transgenic rodents; format: in vivo, transgenic mice and rats (human APP); conditions: ovx APP transgenic rodents; approaching the levels found in intact animals
# From the text: Preparation of Brain Extracts.
# Detection of sAPPα, flAPP, Aβ40 and Aβ42.
# Aβ40 and Aβ42 peptides [4] = conditions: physiological concentrations; rodent primary neuronal (embryonic cerebral cortex) cultures; cited from earlier work
# Aβ40 and Aβ42 peptides [5] = conditions: physiological concentrations; human primary neuronal (embryonic cerebral cortex) cultures; cited from earlier work
# [6] = ovx + high-dose E2, 5 mg E2/kg BW/day per os, 10 days
# [7] = ovx + low-dose E2, 1 mg E2/kg BW/day per os, 10 days
compound,measurement,setting,value
"C[C@]12CC[C@@H]3c4ccc(O)cc4CC[C@H]3[C@@H]1CC[C@@H]2O [E2, 17β-estradiol]","increase in uterine weight, ovx+E2 group compared to ovx group","[1]; first experiment, 1 mg E2/kg BW/day per os, 10 days, p=0.0003",greater than 3 fold
same,state of uteri,"[1]; high-dose E2 for 10 days, weights did not exceed the low-dose group",uterine hypertrophy
same,state of uteri,"[1]; low-dose E2 for 10 days, weights comparable to or higher than intact group",hypertrophied
same,Uterine weight mean +/− SEM,[1]; [6],1.03 ± 0.08 g
same,Uterine weight median,[1]; [6],1.055 g
same,Uterine weight mean +/− SEM,[1]; [7],1.4 ± 0.18 g
same,Uterine weight median,[1]; [7],1.37 g
same,average decrease in total Aβ levels in brain compared to ovx group,"brain Aβ (Aβ40, Aβ42); first experiment, 1 mg E2/kg BW/day per os, 10 days, p=0.09",20%
same,Total Aβ (median),"brain Aβ (Aβ40, Aβ42); [6]",2.094 ngAβ/g brain tissue
same,Total Aβ mean +/− SEM,"brain Aβ (Aβ40, Aβ42); [6]",1.998 +/− 0.175 ngAβ/g brain tissue
same,Total Aβ (median),"brain Aβ (Aβ40, Aβ42); [7]",2.063 ngAβ/g brain tissue
same,Total Aβ mean +/− SEM,"brain Aβ (Aβ40, Aβ42); [7]",2.023 +/− 0.134 ngAβ/g brain tissue
same,average decrease in ovx-associated increase in brain Aβ levels (summary statement),"brain Aβ (Aβ40, Aβ42); ovx guinea pigs, E2 for ten days beginning 8 weeks after ovx, p<0.01",20%
same,average decrease for Aβ40 compared to ovx,"brain Aβ (Aβ40, Aβ42); second experiment, low-dose E2 10 days, p<0.01",18%
same,average decrease for Aβ42 compared to ovx,"brain Aβ (Aβ40, Aβ42); second experiment, low-dose E2 10 days, p=0.033",21%
same,average decrease of total brain Aβ levels compared to ovx,"brain Aβ (Aβ40, Aβ42); second experiment, low-dose E2 (1 mg/kg BW/day) 10 days, p<0.01",18%
same,serum E2 levels after oral E2,[2],dramatic increase
same,uterine effect of oral E2,[3],uterine hypertrophy
same,levels of brain Aβ after E2 treatment,brain Aβ,decrease
same,levels of Aβ40 and Aβ42 peptides released,Aβ40 and Aβ42 peptides [4],decreased
same,levels of Aβ40 and Aβ42 peptides released,Aβ40 and Aβ42 peptides [5],decreased
